Data reported in article PMC8197275, “Novel Tdp1 Inhibitors Based on Adamantane Connected with Monoterpene Moieties via Heterocyclic Fragments” (Molecules, 2021).
Where two headings read alike, the source gives them in different places.

How the values were obtained:
[1] = Cytotoxicity, EZ4U Cell Proliferation and Cytotoxicity Assay, HeLa; format: cell-based; conditions: human, HeLa cells, cervical cancer HeLa
Protocol: (§1) The cytotoxicity of compounds was investigated using HeLa (cervical cancer), SW837 and HCT-116 (colon cancers) cell lines, and the results are shown in Table 1 and Figure S2 in the Supplementary Materials. […] In general, the HeLa cell line was less sensitive to the inhibitors than the HCT-116 and SW837 cells.
(§2) The human cervical cancer HeLa cells were grown in Iscove’s modified Dulbecco’s medium (IMDM) with 40 μg/mL gentamicin, 50 IU/mL penicillin, 50 μg/mL streptomycin (MP Biomedicals), and 10% of fetal bovine serum (Biolot) in a 5% CO2 atmosphere. Human colon adenocarcinoma HCT-116, rectum adenocarcinoma SW837, and human embryo kidney HEK293A cell lines were cultured in DMEM medium (Invitrogen) supplemented with 10% fetal bovine serum (FBS) (Invitrogen), penicillin (100 units/mL), and streptomycin (100 μg/mL), at 37 °C, 5% CO2 in a humid atmosphere. After the formation of a 30–50% monolayer, the tested compounds were added to the medium. The volume of the added reagents was 1/100 of the total volume of the culture medium, and the amount of DMSO was 1% of the final volume. Control cells were grown in the presence of 1% DMSO. The cell culture was monitored for 3 days.
(§3) The cytotoxicity of the compounds to HeLa and HEK293A cell lines was examined using the EZ4U Cell Proliferation and Cytotoxicity Assay (Biomedica, Austria), according to the manufacturer’s protocols.

[2] = Cytotoxicity, MTT test, HCT-116; format: cell-based; conditions: human, HCT-116 cells; colorectal HCT-116, 72 h MTT
Protocol: as §1, §2
(§4) The medium was removed, and the dark blue crystals of formazan were dissolved in 100 μL of isopropanol. The absorbance at 570 nm (peak) and 620 nm (baseline) was determined using a microplate reader Multiscan FC (Thermo Fisher Scientific Corporation). All concentrations were performed in triplicate. The values are given as mean ± standard deviation (S.D.) values, and all measurements were repeated three times.

[3] = Cytotoxicity, MTT test, SW837; format: cell-based; conditions: human, SW837 cells; colorectal SW837, 72 h MTT
Protocol: as §1, §2, §4

HeLa cells = assay: Sensitizing of HeLa cells to topotecan by Tdp1 inhibitors; format: cell-based, human; conditions: for HeLa CC50 of topotecan with Tdp1 inhibitor: human, 3 days, 5 µM; for combination index (CI) with topotecan: different concentrations of topotecan, CompuSyn
Protocol: (§5) The potential for sensitizing the cancer cell lines to topotecan using the Tdp1 inhibitors was investigated using the MTT assay. Neutralizing the enzymatic activity of Tdp1 by blocking access to its catalytic site using a small molecule should sensitize the cytotoxic potential of topotecan, since the complex of Top1 with DNA cannot be unraveled. […] Nontoxic concentrations of the adamantane derivatives (5 μM) were used for the HeLa cell line; the dose response for topotecan was measured and the corresponding CC50 values were derived, and the results are shown in Figure 4 for 20c and in Table 2 for all the derivatives.
(§6) For HeLa cells, increased cytotoxicity was seen when the adamantanes and topotecan were combined. […] The combination index (CI) for different concentrations of topotecan and 20c at 5 μM was in the range 0.49–0.82, and at 10 μM of 20c, it was 0.23–0.78. This indicates a synergistic effect of topotecan and 20c. The CI values were calculated with the CompuSyn version 1.0 software. For the HCT-116 cells, the synergistic effects of the compounds were different than for the HeLa cells. […] The CI plot at a different fraction affected (Fa) was determined for topotecan (5, 15, 150, 500 and 1500 nM) and 20g (1, 3, 10, 20 μM). The CI values for most of the combinations correspond to a synergistic effect (CI < 1, see Figure S3 in the Supplementary Materials).
as §2, §3

HCT-116 cells = assay: Sensitizing of HCT-116 cells to topotecan by Tdp1 inhibitors; format: cell-based, human; conditions: for HCT116 CC50 of topotecan with Tdp1 inhibitor: human, 72 h
Protocol: as §5, §6, §2, §4

Tdp1 [4] = biological target: T1, Tdp1 (Homo sapiens, UniProt Q9NUW8); assay: Tdp1 cleavage activity, fluorophore quencher-coupled DNA-biosensor, real-time; format: biochemical; set-up: inferred from the pET 16B vector and Ni-chelating resin purification; made in house; conditions: recombinant Tdp1 1.5 nM, 50 nM biosensor; read-out: IC50 (Tdp1 activity inhibition at 50%)
Protocol: The recombinant Tdp1 was purified to homogeneity by chromatography on Ni-chelating resin and phosphocellulose P11 as described, using plasmid pET 16B-Tdp1, kindly provided by Dr. K.W. Caldecott (University of Sussex, United Kingdom). Tdp1 activity was detected as described in the work. Briefly, we measured the fluorescence intensity after quencher removal from a fluorophore quencher–coupled DNA oligonucleotide catalyzed by Tdp1. The reaction was carried out at different concentrations of inhibitors. The control samples contained 1% DMSO. The reaction mixtures contained Tdp1 buffer (50 mM Tris-HCl pH 8.0, 50 mM NaCl, and 7 mM β-mercaptoethanol), 50 nM biosensor, and an inhibitor being tested. The reaction was started by the addition of purified Tdp1 (1.5 nM). The biosensor (5′-[FAM] AAC GTC AGGGTC TTC C [BHQ]-3′) was synthesized in the Laboratory of Biomedical Chemistry at the Institute of Chemical Biology and Fundamental Medicine (Novosibirsk, Russia).
The reactions were incubated on a POLARstar OPTIMA fluorimeter (BMG LAB-TECH, GmbH) to measure fluorescence every 55 s (ex. 485 nm/em. 520 nm) during the linear phase (here, data are from minute 0 to minute 8). The values of IC50 were determined using a six-point concentration response curve in a minimum of three independent experiments, and were calculated using MARS Data Analysis 2.0 (BMG LABTECH).

HEK293A cells = assay: Cytotoxicity on noncancerous cell line HEK293A (EZ4U); format: cell-based, human; conditions: concentrations up to 30 μM; data not shown
Protocol: as §1, §2, §3

[5] = Solubility remark during biological testing; format: physicochemical; conditions: remark in words
Tdp1 [6] = biological target: T1, Tdp1; set-up: inferred from the pET 16B vector and Ni-chelating resin purification; made in house; conditions: cited from earlier work

T1 sequence (Q9NUW8 whole entry): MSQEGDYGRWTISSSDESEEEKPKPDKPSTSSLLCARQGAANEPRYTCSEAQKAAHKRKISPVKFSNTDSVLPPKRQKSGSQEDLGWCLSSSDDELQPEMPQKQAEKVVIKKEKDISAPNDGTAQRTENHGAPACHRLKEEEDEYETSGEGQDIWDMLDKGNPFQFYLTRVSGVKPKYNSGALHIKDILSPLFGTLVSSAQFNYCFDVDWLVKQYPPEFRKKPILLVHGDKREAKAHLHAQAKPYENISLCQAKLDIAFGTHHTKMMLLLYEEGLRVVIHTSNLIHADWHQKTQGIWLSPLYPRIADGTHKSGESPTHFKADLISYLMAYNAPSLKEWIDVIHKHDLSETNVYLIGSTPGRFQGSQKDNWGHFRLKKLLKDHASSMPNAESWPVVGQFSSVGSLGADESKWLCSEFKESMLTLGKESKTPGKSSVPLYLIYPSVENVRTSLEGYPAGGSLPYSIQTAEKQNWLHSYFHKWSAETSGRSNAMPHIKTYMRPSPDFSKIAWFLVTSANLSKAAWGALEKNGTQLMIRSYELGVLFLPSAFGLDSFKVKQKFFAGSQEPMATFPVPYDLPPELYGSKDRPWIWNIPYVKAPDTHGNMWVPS

SMILES	CC50 at 3 days [1]	CC50 at 72 h [2]	CC50 at 72 h [3]	HeLa CC50 of topotecan with Tdp1 inhibitor (HeLa cells)	IC50 (Tdp1 [4])	other results
CC(C)CCCC(C)CCSc1n[nH]c(C23CC4CC(CC(C4)C2)C3)n1 (stereo not drawn) [20a, 5-(Adamantan-1-yl)-3-((3,7-dimethyloctyl)thio)-1H-1,2,4-triazole]	85 ± 23 µM	27 ± 6 µM	52 ± 6 µM	4.5 µM	0.54 ± 0.09 µM	HCT116 CC50 of topotecan with Tdp1 inhibitor (HCT-116 cells; 20 µM): 650.0 (20) nM
CC(C)=CCC[C@H](C)CCSc1n[nH]c(C23CC4CC(CC(C4)C2)C3)n1 [20b, 5-(Adamantan-1-yl)-3-(((S)-3,7-dimethyloct-6-en-1-yl)thio)-1H-1,2,4-triazole]	> 100 µM	> 100 µM	41 ± 4 µM	–	1.5 ± 0.3 µM	HCT116 CC50 of topotecan with Tdp1 inhibitor (HCT-116 cells; 20 µM): 575.3 (20) nM
CC(C)=CCC/C(C)=C/CSc1n[nH]c(C23CC4CC(CC(C4)C2)C3)n1 [20c, 5-(Adamantan-1-yl)-3-(((E)-3,7-dimethylocta-2,6-dien-1-yl)thio)-1H-1,2,4-triazole]	64 ± 6 µM	16 ± 7 µM	41 ± 6 µM	1.9 µM	5.3 ± 1.7 µM	effect on cell viability, HEK293A (HEK293A cells): no effect on cell viability; potentiation of the cytotoxic potency of topotecan (HeLa cells): 3 ×; combination index (CI) with topotecan (HeLa cells; HeLa, inhibitor at 5 μM): 0.49–0.82; combination index (CI) with topotecan (HeLa cells; HeLa, inhibitor at 10 μM): 0.23–0.78; HCT116 CC50 of topotecan with Tdp1 inhibitor (HCT-116 cells; 15 µM): 460.0 (15) nM
CC(C)=CCC/C(C)=C\CSc1n[nH]c(C23CC4CC(CC(C4)C2)C3)n1 [20d, 5-(Adamantan-1-yl)-3-(((Z)-3,7-dimethylocta-2,6-dien-1-yl)thio)-1H-1,2,4-triazole]	31 ± 11 µM	20 ± 9 µM	17 ± 5 µM	5.4 µM	5.6 ± 0.6 µM	HCT116 CC50 of topotecan with Tdp1 inhibitor (HCT-116 cells; 15 µM): 689.0 (15) nM
C=C(C)[C@@H]1CC=C(CSc2n[nH]c(C34CC5CC(CC(C5)C3)C4)n2)CC1 [20e, 5-(Adamantan-1-yl)-3-((((S)-4-(prop-1-en-2-yl)cyclohex-1-en-1-yl)methyl)thio)-1H-1,2,4-triazole]	24 ± 16 µM	15 ± 5 µM	40 ± 4 µM	–	6.2 ± 2.2 µM	HCT116 CC50 of topotecan with Tdp1 inhibitor (HCT-116 cells; 15 µM): 392.0 (15) nM
CC1(C)[C@H]2CC=C(CSc3n[nH]c(C45CC6CC(CC(C6)C4)C5)n3)[C@@H]1C2 [20f, 5-(Adamantan-1-yl)-3-((((1R,5S)-6,6-dimethylbicyclo[3.1.1]hept-2-en-2-yl)methyl)thio)-1H-1,2,4-triazole]	15 ± 2 µM	54 ± 5 µM	46 ± 6 µM	2.8 µM	7.5 ± 1.8 µM	HCT116 CC50 of topotecan with Tdp1 inhibitor (HCT-116 cells; 25 µM): 715.0 (25) nM
CC(C)CCCC(C)CC(=O)Nc1nnc(C23CC4CC(CC(C4)C2)C3)s1 (stereo not drawn) [25a, N-(5-(Adamantan-1-yl)-1,3,4-thiadiazol-2-yl)-3,7-dimethyloctanamide]	> 100 µM	> 100 µM	> 100 µM	4.9 µM	0.35 ± 0.05 µM	HCT116 CC50 of topotecan with Tdp1 inhibitor (HCT-116 cells; 45 µM): 455.7 (45) nM
CC(C)=CCCC(C)CC(=O)Nc1nnc(C23CC4CC(CC(C4)C2)C3)s1 (stereo not drawn) [25b, N-(5-(Adamantan-1-yl)-1,3,4-thiadiazol-2-yl)-3,7-dimethyloct-6-enamide]	> 100 µM	66 ± 6 µM	83 ± 8 µM	2.9 µM	2.59 ± 0.48 µM	HCT116 CC50 of topotecan with Tdp1 inhibitor (HCT-116 cells; 20 µM): 611.9 (20) nM; solubility [5]: poor solubility
CC1(C)[C@H]2CC=C(C(=O)Nc3nnc(C45CC6CC(CC(C6)C4)C5)s3)[C@@H]1C2 [25c, (1R,5S)-N-(5-(Adamantan-1-yl)-1,3,4-thiadiazol-2-yl)-6,6-dimethylbicyclo[3.1.1]hept-2-ene-2-carboxamide]	> 100 µM	> 100 µM	> 100 µM	3.6 µM	0.45 ± 0.09 µM	HCT116 CC50 of topotecan with Tdp1 inhibitor (HCT-116 cells; 25 µM): 486.0 (25) nM
C=C(C)[C@@H]1CC=C(C(=O)Nc2nnc(C34CC5CC(CC(C5)C3)C4)s2)CC1 [25d, (S)-N-(5-(adamantan-1-yl)-1,3,4-thiadiazol-2-yl)-4-(prop-1-en-2-yl)cyclohex-1-ene-1-carboxamide]	–	–	–	–	–	solubility [5]: poor solubility; melting point: 265.6 °C
CC(C)CCCC(C)CC(=O)NC12CC3CC(CC(C3)C1)C2 (stereo not drawn) [26a, N-(Adamantan-1-yl)-3,7-dimethyloctanamide]	–	–	–	–	> 15 µM	melting point: 97.9 °C
CC1(C)[C@H]2CC=C(C(=O)NC34CC5CC(CC(C5)C3)C4)[C@@H]1C2 [26c, reference compound]	–	–	–	–	> 15 µM	–
CC(C)CCCC(C)CCNC(=O)C12CC3CC(CC(C3)C1)C2 (stereo not drawn) [28a, reference compound]	–	–	–	–	> 15 µM	–
CC1(C)[C@H]2CC=C(CCNC(=O)C34CC5CC(CC(C5)C3)C4)[C@@H]1C2 [28g, reference compound]	–	–	–	–	> 15 µM	–
CC[C@@]1(O)C(=O)OCc2c1cc1n(c2=O)Cc2cc3c(CN(C)C)c(O)ccc3nc2-1 [Topotecan, topotecan, reference compound]	–	–	–	–	–	CC50 (HeLa cells; Homo sapiens, HeLa, topotecan alone): 6 µM; CC50 (HCT-116 cells; Homo sapiens, HCT-116, topotecan alone, read-out: HCT116 CC50 of topotecan): 0.715 µM
CC(C)=CCCC(C)CC1N2CC3(C)CN1CC(C)(C2)C3=O (stereo not drawn) [compound 3]	–	–	–	–	–	IC50 (Tdp1 [6]): ~15 µM
C[C@@H]1CC[C@@H]2[C@@H](C1)O[C@@H](c1ccc(NC(=O)c3cccc4ccccc34)s1)C[C@]2(C)O [compound 5]	–	–	–	–	–	IC50 (Tdp1 [6]): 2 µM
C[C@@H]1CC[C@@H]2[C@@H](C1)O[C@@H](c1ccc(NC(=O)C34CC5CC(CC(C5)C3)C4)s1)C[C@]2(C)O [compound 13]	–	–	–	–	–	IC50 (Tdp1 [6]): 1.2 µM
